In brackets after ≈: the same amount, converted by molar mass. Residues, ends and D or L forms follow the SMILES beside them.
Columns and labels:
S. aureus ATCC 29213 = type: cell-based; settings: ATCC 29213
Protocol: (§1) Peptides according to SEQ ID NOs as listed in Table 1 were prepared by a commercial manufacturer (CS Bio, Menlo Park, Calif.) using solid phase synthesis. Antimicrobial activity was assessed by determining the Minimal Inhibitory Concentration (MIC) against S. aureus and E. coli. Briefly, Microbroth MICs were performed using CLSI methodology (VET01-S2). For S. aureus and E. coli ATCC strains, TSA with 5% lysed horse blood agar was used for overnight culturing at 37° C. ambient air. A 0.5 mM stock for each peptide was made with cell culture water, 0.01% acetic acid and serially diluted and spotted (10 μL) in a 96-well plate for in assay dose titration concentration of 50 μM to 0.05 μM. 0.5 McFarland Standard of each strain was diluted 1:250 in Mueller-Hinton Broth (MHB). 90 μL of culture suspension was then added upon drug in the 96-well plate for overnight incubation for 18-20 hours. The MIC was determined visually at the first well of no visible growth at the corresponding concentration.

E. coli ATCC 25922 = type: cell-based; settings: ATCC 25922
Protocol: as §1

cRBC = type: cell-based, canine
Protocol: SEQ ID NO: 1 was selected for further research. Toxicity of SEQ ID NO: 1 to eukaryotic blood cells was compared to that of tachyplesin (SEQ ID NO: 13). A standard, well referenced red blood cell hemolysis assay was employed against multiple species to test the lysis potential of the peptides. Red blood cells (RBCs) were prepared and isolated by several centrifuge and wash steps to remove the plasma fraction. A dose titration (50 μM to 0.05 μM) of test peptides and control peptide melittin were spotted from 50 mM stocks in a 384 well plate. Prepared RBCs were incubated with peptide for one hour at 37° C. Percent hemolysis was measured by optical density at 405 nm and utilizing 1% TritonX100 as hundred percent effect (HPE) and phosphate buffer alone as zero percent effect (ZPE).

[1] = tested on: Canine-derived epithelial keratinocyte (CPEK) cells; type: cell-based
Protocol: Safety of the peptides listed in table 2 was determining by measuring cell viability. Canine-derived epithelial keratinocyte (CPEK) cells were propagated to determine cell viability in the presence of peptides. Cells were grown from a frozen stock in CnT-09-5 (with supplements) pre-warmed media in a T75 flask and incubated overnight at 37° C., 5% CO2. Cells were washed with phosphate buffer and replenished with pre-warmed CnT-05-9 media and repeated for several days until cells reached a density of 6.6×10^4 cells/mL. Cells were then transferred to a 384 well plate, allowed to settle and dosed with peptides and melittin control peptide (50 μM to 0.05 μM) and incubated overnight at 37° C., 5% CO2. 0.1% TritonX100 as (HPE) and phosphate buffer alone as (ZPE) were added to the plates to calculate percent effect once the assay was terminated with 10 μL CELLTITER-GLO® assay reagents for a luminescent readout.

[2] = tested on: MSSP (Methicillin-Susceptible Staphylococcus pseudintermedius); assay: MIC against selected strains of MSSP; type: cell-based; parameters: key to MIC MSSP 84658 / MIC MSSP 86000 / MIC MSSP 71990 / MIC MSSP 72036 / MIC MSSP 78032: MIC in μM; key to MIC MSSP 86001 / MIC MSSP 72191 / MIC MSSP 76986 / MIC MSSP 77378: MIC in μM (first well with no visible growth); MIC MSSP 49051 / MIC MSSP 81923 / MIC MSSP 84250 / Effect on MSSP 86000 / Effect on MSSP 72036 / Effect on MSSP 78032: unit not given beside the values; settings: for MIC MSSP 49051: strain 49051, Table 3; for MIC MSSP 71990: strain 71990, Table 3; for MIC MSSP 72036: strain 72036, Table 3; for MIC MSSP 72191: strain 72191, Table 3; for MIC MSSP 76986: strain 76986, Table 3; for MIC MSSP 77378: strain 77378, Table 3; for MIC MSSP 78032: strain 78032, Table 3; for MIC MSSP 81923: strain 81923, Table 3; for MIC MSSP 84250: strain 84250, Table 3; for MIC MSSP 84658: strain 84658, Table 3; for MIC MSSP 86000: strain 86000, Table 3; for MIC MSSP 86001: strain 86001, Table 3
Protocol: as §1
(§2) Antimicrobial activity of the peptides listed in Table 2 against different strains of MSSP (Methicillin-Susceptible Staphylococcus pseudintermedius) and MRSP (Methicillin-Resistant Staphylococcus pseudintermedius) was further assessed. The results are in Tables 3 and 4, respectively.

[3] = tested on: MRSP (Methicillin-Resistant Staphylococcus pseudintermedius); assay: MIC against selected strains of MRSP; type: cell-based; parameters: key to MIC MRSP 88493 / MIC MRSP 72035 / MIC MRSP 81926: MIC in μM; key to MIC MRSP 71994 / MIC MRSP 79882 / MIC MRSP 80729 / MIC MRSP 86002: MIC in μM (first well with no visible growth); key to MIC MRSP 72192 / MIC MRSP 76923 / MR 71994 / Mr 88493 / MR 72035 / MR 72192 / MR 76923 / MR 79882 / MR 80279 / MR 81926 / MR 86002 / MR 87665: MIC in μM (visual, first well with no growth); MIC MRSP 87655: unit not given beside the values; settings: for MIC MRSP 71994: strain 71994, Table 4; for MIC MRSP 72035: strain 72035, Table 4; for MIC MRSP 72192: strain 72192, Table 4; for MIC MRSP 76923: strain 76923, Table 4; for MIC MRSP 79882: strain 79882, Table 4; for MIC MRSP 80729: strain 80729, Table 4; for MIC MRSP 81926: strain 81926, Table 4; for MIC MRSP 86002: strain 86002, Table 4; for MIC MRSP 87655: strain 87655, Table 4; for MIC MRSP 88493: strain 88493, Table 4
Protocol: as §1, §2

Row | Compound | cRBC (50 μM) (cRBC) | CPEK (50 μM) [1] | MIC MSSP 49051 [2] | MIC MSSP 71990 [2] | MIC MSSP 72036 [2] | MIC MSSP 72191 [2] | MIC MSSP 76986 [2] | MIC MSSP 77378 [2] | MIC MSSP 78032 [2] | MIC MSSP 81923 [2] | MIC MSSP 84250 [2] | MIC MSSP 84658 [2] | MIC MSSP 86000 [2] | MIC MSSP 86001 [2] | MIC MRSP 71994 [3] | MIC MRSP 72035 [3] | MIC MRSP 72192 [3] | MIC MRSP 76923 [3] | MIC MRSP 79882 [3] | MIC MRSP 80729 [3] | also measured
1 | CC(C)[C@H](NC(=O)[C@H](CS)NC(=O)[C@H](Cc1ccccc1)NC(=O)CNC(=O)[C@H](CC(N)=O)NC(=O)[C@H](CCCCN)NC(=O)[C@H](CS)NC(=O)[C@H](CCCCN)NC(=O)[C@H](CS)NC(=O)CNC(=O)[C@H](CCCCN)NC(=O)[C@@H](N)CCCNC(=N)N)C(=O)N[C@@H](CS)C(=O)N[C@@H](CCCNC(=N)N)C(N)=O [SEQ ID NO: 65, RKGCKCKNGFCVCR-NH2] (H-RKGCKCKNGFCVCR-NH2; N-terminus assumed) |  |  |  |  |  |  |  |  |  |  |  |  |  |  |  |  |  |  |  |  | MIC S. aureus ATCC 29213 (S. aureus ATCC 29213): 50 µM (≈ 80.1 µg/mL); MIC E. coli ATCC 25922 (E. coli ATCC 25922): 6.25 µM (≈ 10 µg/mL)
2 | CC(C)C[C@H](NC(=O)[C@H](CCCNC(=N)N)NC(=O)CNC(=O)CNC(=O)[C@@H](N)CCCNC(=N)N)C(=O)N[C@@H](CS)C(=O)N[C@@H](Cc1ccc(O)cc1)C(=O)N[C@@H](CS)C(=O)N[C@@H](CCCNC(=N)N)C(=O)N[C@@H](CCCNC(=N)N)C(=O)N[C@@H](CCCNC(=N)N)C(=O)N[C@@H](Cc1ccccc1)C(=O)N[C@@H](CS)C(=O)N[C@H](C(=O)N[C@@H](CS)C(=O)N[C@H](C(=O)NCC(=O)N[C@@H](CCCNC(=N)N)C(=O)O)C(C)C)C(C)C [SEQ ID NO: 92, RGGRLCYCRRRFCVCVGR] (H-RGGRLCYCRRRFCVCVGR-OH; N-terminus and C-terminus assumed) |  |  |  |  |  |  |  |  |  |  |  |  |  |  |  |  |  |  |  |  | MIC S. aureus ATCC 29213 (S. aureus ATCC 29213): 3.1 µM (≈ 6.7 µg/mL); MIC E. coli ATCC 25922 (E. coli ATCC 25922): 3.1 µM (≈ 6.7 µg/mL)
3 | 9 (KWCFRVCYRGFCYRRCRD; Artificial Antimicrobial peptide) [compound 9] | 101.3 | 52.3 | 1.6 | 1.6 | 0.8 | 1.6 | 0.8 | 0.4 | 0.8 | 1.6 | 1.6 | 1.6 | 0.8 | 0.8 | 1.6 | 1.6 | 1.6 | 1.6 | 0.8 | 1.6 | MIC MRSP 81926 [3]: 1.6; MIC MRSP 86002 [3]: 1.6; MIC MRSP 87655 [3]: 1.6; MIC MRSP 88493 [3]: 1.6
4 | 4 (KFCFRVCYRGICYRRCRD; Artificial antimicrobial peptide) [compound 4] | 67.1 | 16.6 | 1.6 | 1.6 | 0.8 | 0.8 | 0.8 | 0.4 | 0.8 | 1.6 | 1.6 | 1.6 | 1.6 | 0.8 | 1.6 | 1.6 | 1.6 | 0.8 | 0.8 | 0.8 | MIC MRSP 81926 [3]: 0.8; MIC MRSP 86002 [3]: 1.6; MIC MRSP 87655 [3]: 1.6; MIC MRSP 88493 [3]: 1.6
5 | 6 (KWCFRVCRRGICYRRCRD; Artificial Antimicrobial peptide) [compound 6] | 1.1 | 4.1 | 3.1 | 3.1 | 3.1 | 3.1 | 3.1 | 1.6 | 3.1 | 3.1 | 3.1 | 3.1 | 3.1 | 3.1 | 3.1 | 3.1 | 3.1 | 3.1 | 3.1 | 3.1 | MIC MRSP 81926 [3]: 3.1; MIC MRSP 86002 [3]: 3.1; MIC MRSP 87655 [3]: 3.1; MIC MRSP 88493 [3]: 3.1
6 | 1 (KWCFRVCYRGICYRRCRD; Antimicrobial peptide) [compound 1] | 20.5 | 21.5 | 1.6 | 1.6 | 1.6 | 1.6 | 1.6 | 1.6 | 1.6 | 1.6 | 1.6 | 1.6 | 1.6 | 1.6 | 1.6 | 1.6 | 1.6 | 1.6 | 1.6 | 1.6 | MIC MRSP 81926 [3]: 1.6; MIC MRSP 86002 [3]: 1.6; MIC MRSP 87655 [3]: 1.6; MIC MRSP 88493 [3]: 1.6
7 | 2 (RWCFRVCYRGICYRRCRD; Artificial antimicrobial peptide) [compound 2] | 64.0 | −1.7 | 1.6 | 1.6 | 1.6 | 1.6 | 1.6 | 1.6 | 1.6 | 3.1 | 1.6 | 3.1 | 1.6 | 1.6 | 1.6 | 1.6 | 1.6 | 1.6 | 0.8 | 1.6 | MIC MRSP 81926 [3]: 1.6; MIC MRSP 86002 [3]: 1.6; MIC MRSP 87655 [3]: 1.6; MIC MRSP 88493 [3]: 1.6

— patent US11352396B2, “Antimicrobial peptides and methods of using same” (Zoetis Services LLC, priority 2017, dated 2022)
